The source of these data is patent US6630303B1, “Methods of screening for compounds active on Staphylococcus aureus target genes” (priority 1995, dated 2003).

Experiment [1] has as its system ts S. typhimurium mutant alleles of the gyrase subunit A. The experiment in a line: Hypersusceptibility (MIC) of S. typhimurium gyrA ts mutants at semi-permissive temperature. The class given is cell-based, Salmonella typhimurium. As to the method:
As an illustration of the hypersusceptibility profiles for a group of bacterial ts mutant strains, the minimal inhibitory concentrations (MICs) of various drugs and toxic agents were determined for a set of Salmonella typhimurium temperature-sensitive essential gene mutants.
The MICs were measured by using a standard micro broth dilution technique following the recommendations of the National Committee for Clinical Laboratory Standards (1994). Bacteria were first grown in Mueller-Hinton broth at 30° C., diluted to 10^5 cfu/ml and used to inoculate 96-microwell plates containing two-fold dilutions of antibiotics in Mueller-Hinton broth. Plates were incubated for 20 h at a semi-permissive temperature (35° C.) and the MIC was determined as the lowest dilution of antibiotic preventing visible growth.
A two-fold difference in the susceptibility level of the mutant strain compared to that of the parental strain is within the limits of the experimental variation and thus a ≧4-fold decrease in MIC was considered as a significant hypersusceptibility.
The specific hypersensitivity of temperature sensitive mutations in a known target to inhibitors of that target is shown in FIG. 1 with the susceptibility profile of three ts S. typhimurium mutant alleles of the gyrase subunit A (gyrA212, gyrA215 and gyrA216) grown at a semi-permissive temperature (35° C.).

For experiment [2], the system named is Salmonella wild type parent strain. The experiment in a line: Carbon source utilization profile (gene sensor methodology). The class given is cell-based. The settings on record: sublethal concentration; carbon source not used by the dapA or murCEFG mutant. The text has this:
The growth conditional mutants are also used in gene sensor methodology, e.g., using carbon utilization profiles. Ts mutants fail to metabolize different carbon sources in semi-permissive growth conditions. The carbon sources not utilized by a specific mutant or group of mutants provide additional phenotypes associated with the crippled essential function. Moreover, some of these carbon source markers were also not used by the wild type strain exposed to sub-MIC concentrations of known drugs affecting the same specific cellular targets or pathways.

The mark [3] stands for this setting: mutant gyrA222, semi-permissive temperature 35° C.
Where [4] appears, read: mutant gyrA215, semi-permissive temperature 35° C.

For the compound `O=C(O)c1cn(C2CC2)c2cc(N3CCNCC3)c(F)cc2c1=O` [ciprofloxacin], in experiment [1] (setting [3]), the “hypersusceptibility compared to wild-type parent strain” value is “hypersusceptibility”.

With `CCn1cc(C(=O)O)c(=O)c2cc(F)c(N3CCNCC3)cc21` [norfloxacin], the “hypersusceptibility compared to wild-type parent strain” value in experiment [1] (setting [4]) and in experiment [1] (setting [3]) was “hypersusceptibility” throughout. Regarding `Cn1nnnc1SCC1=C(C(=O)O)N2C(=O)[C@@H](NC(=O)[C@H](O)c3ccccc3)[C@H]2SC1` [cefamandole], in experiment [2], the carbon source metabolism result was “prevented the Salmonella wild type parent strain from metabolizing the same carbon source”. As to coumermycin, the “hypersusceptibility compared to wild-type parent strain” value is given as “hypersusceptibility” in experiment [1] (setting [4]) and “hypersusceptibility” in experiment [1] (mutant gyrA276, semi-permissive temperature 35° C.).
